Measured values published in patent US20060276464A1, “Diarylsulfone sulfonamides and use thereof” (Wyeth, priority 2005, published 2006).
Like-named read-outs stand apart in the source and are kept apart here.

Target: T1, SFRP-1 (Homo sapiens, UniProt Q8N474)
T1 sequence (Q8N474 32-314): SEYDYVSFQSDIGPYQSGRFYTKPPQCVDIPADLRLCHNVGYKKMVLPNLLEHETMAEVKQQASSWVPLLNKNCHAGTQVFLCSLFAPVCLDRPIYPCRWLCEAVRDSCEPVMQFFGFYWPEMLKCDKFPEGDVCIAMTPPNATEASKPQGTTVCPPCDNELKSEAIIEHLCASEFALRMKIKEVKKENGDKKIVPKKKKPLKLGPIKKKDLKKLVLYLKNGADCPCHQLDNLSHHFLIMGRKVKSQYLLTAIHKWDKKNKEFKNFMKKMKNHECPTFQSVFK
Experiment: Cell-based assay for in vitro measurement of SFRP-1/SARP2 antagonist activity (U2OS cells co-transfected with 16x TCF-tk-Luciferase reporter, Wnt and hSFRP-1);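 further: U2OS cells co-transfected with a TCF-tk luciferase reporter, a Wnt vector, hSFRP-1 or empty vector and CMV-βgal, luciferase luminescence read in cell lysates alongside βgal activity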
Settings: for fold induction at 15 µM / fold induction at 10 µM / fold induction at 30 µM / fold induction at 60 µM / fold induction at 20 µM: U2OS; for fold induction at 10 µM: read-out: Fold Induction with SFRP-1, U2OS cells, single dose 10 μM, luciferase reporter, fold induction over SFRP-1 control

[1] = read-out: Fold Induction with SFRP-1, Conc 15 μM, with SFRP-1, fold induction over SFRP-1 control, single dose
[2] = read-out: Fold Induction without SFRP-1, Conc 15 μM, without SFRP-1, single dose
[3] = read-out: Fold Induction with SFRP-1, Conc 30 μM, with SFRP-1, fold induction over SFRP-1 control, single dose
[4] = read-out: Fold Induction without SFRP-1, Conc 30 μM, without SFRP-1, single dose
[5] = read-out: Fold Induction with SFRP-1, Conc 15 μM, single dose, luciferase reporter, fold induction over SFRP-1 control, cells with SFRP-1
[6] = read-out: Fold Induction without SFRP-1, Conc 15 μM, single dose, luciferase reporter, cells without SFRP-1 (specificity control)

Compound | fold induction at 15 µM [1] | fold induction at 15 µM [2] | further results
Cc1ccc(S(=O)(=O)c2ccc(-c3ccccc3)cc2)cc1S(=O)(=O)NCCc1ccccn1 [Example 433, 5-(biphenyl-4-ylsulfonyl)-2-methyl-N-(2-pyridin-2-ylethyl)benzenesulfonamide] | 2.5 | 1.1 | 
COc1ccc(S(=O)(=O)c2ccccc2)cc1S(=O)(=O)NCCc1ccccc1F [Example 156, N-[2-(2-fluorophenyl)ethyl]-2-methoxy-5-(phenylsulfonyl)benzenesulfonamide] | 1.4 | 1.4 | 
Cc1ccc(S(=O)(=O)c2ccccc2)cc1S(=O)(=O)NCCC(=O)NC(C)(C)C [Example 666, N-(tert-butyl)-N^3-{[2-methyl-5-(phenylsulfonyl)phenyl]sulfonyl}-β-alaninamide] |  |  | EC50: 27.2 µM; fold induction at 10 µM: 1.5
COc1ccccc1CCNS(=O)(=O)c1cc(S(=O)(=O)c2ccc(C)cc2)ccc1C [Example 118, N-[2-(2-methoxyphenyl)ethyl]-2-methyl-5-[(4-methylphenyl)sulfonyl]benzenesulfonamide] |  |  | fold induction at 30 µM [3]: 1.3; fold induction at 30 µM [4]: 0.5
Cc1ccc(S(=O)(=O)c2ccc(C(C)(O)C3CCCCC3)cc2)cc1S(=O)(=O)NCCc1ccccn1 (stereo not shown) [Example 406, 5-{[4-(1-cyclohexyl-1-hydroxyethyl)phenyl]sulfonyl}-2-methyl-N-(2-pyridin-2-ylethyl)benzenesulfonamid] |  |  | fold induction at 60 µM (read-out: Fold Induction with SFRP-1, Conc 60 μM, with SFRP-1, fold induction over SFRP-1 control, single dose): 1.2; fold induction at 60 µM (read-out: Fold Induction without SFRP-1, Conc 60 μM, without SFRP-1, single dose): 0.9
Cc1ccc(S(=O)(=O)c2cccc(O)c2)cc1S(=O)(=O)NCCc1ccccn1 [Example 416, 5-[(3-hydroxyphenyl)sulfonyl]-2-methyl-N-(2-pyridin-2-ylethyl)benzenesulfonamide] | 1.9 | 0.9 | 
Cc1ccc(S(=O)(=O)c2ccc(Cl)cc2Cl)cc1S(=O)(=O)NCCCn1ccnc1 [Example 379, 5-[(2,4-dichlorophenyl)sulfonyl]-N-[3-(1H-imidazol-1-yl)propyl]-2-methylbenzenesulfonamide] | 1.8 | 0.9 | 
COc1cccc(S(=O)(=O)c2ccc(C)c(S(=O)(=O)NCCCn3ccnc3)c2)c1 [Example 323, N-[3-(1H-imidazol-1-yl)propyl]-5-[(3-methoxyphenyl)sulfonyl]-2-methylbenzenesulfonamide] | 2.6 | 0.9 | 
Cc1ccc(S(=O)(=O)c2ccc(NC(C)c3ccccc3)cc2)cc1S(=O)(=O)NCCCn1ccnc1 (stereo not shown) [Example 355, N-[3-(1H-imidazol-1-yl)propyl]-2-methyl-5-({4-[(1-phenylethyl)amino]phenyl}sulfonyl)benzenesulfonamide] | 3.4 | 0.9 | 
COc1cccc(CCNS(=O)(=O)c2cc(S(=O)(=O)c3ccccc3)ccc2C)c1 [Example 33, N-[2-(3-methoxyphenyl)ethyl]-2-methyl-5-(phenylsulfonyl)benzenesulfonamide] |  |  | fold induction at 30 µM [3]: 1.2; fold induction at 30 µM [4]: 0.4
Cc1ccc(S(=O)(=O)c2ccc(NC3CCCCC3)cc2)cc1S(=O)(=O)NCCCn1ccnc1 [Example 352, 5-{[4-(cyclohexylamino)phenyl]sulfonyl}-N-[3-(1H-imidazol-1-yl)propyl]-2-methylbenzenesulfonamide] | 1.7 | 1 | 
CC(C)c1ccc(S(=O)(=O)c2ccc(F)cc2)cc1S(=O)(=O)NCCO [Example 582, 5-[(4-fluorophenyl)sulfonyl]-N-(2-hydroxyethyl)-2-isopropylbenzenesulfonamide] |  |  | fold induction at 15 µM [5]: 2.6; fold induction at 15 µM [6]: 1
Cc1ccc(S(=O)(=O)c2ccccc2)cc1S(=O)(=O)NCCc1cccc(F)c1 [Example 52, N-[2-(3-fluorophenyl)ethyl]-2-methyl-5-(phenylsulfonyl)benzenesulfonamide] |  |  | fold induction at 30 µM [3]: 1.4; fold induction at 30 µM [4]: 0.7
Cc1ccc(S(=O)(=O)c2ccccc2)cc1S(=O)(=O)NC1CC1 [Example 424, N-cyclopropyl-2-methyl-5-(phenylsulfonyl)benzenesulfonamide] | 2.1 | 1.2 | 
CCN(CC)C1CCN(S(=O)(=O)c2cc(S(=O)(=O)c3ccccc3)ccc2Cl)C1 (stereo not shown) [Example 644, 1-{[2-chloro-5-(phenylsulfonyl)phenyl]sulfonyl}-N,N-diethylpyrrolidin-3-amine] |  |  | fold induction at 15 µM [5]: 1.3; fold induction at 15 µM [6]: 1.1
Cc1ccc(S(=O)(=O)c2ccccc2)cc1S(=O)(=O)NCCC(N)=O [Example 203, N^3-{[2-methyl-5-(phenylsulfonyl)phenyl]sulfonyl}-beta-alaninamide] | 2.5 | 1.3 | 
CCS(=O)(=O)c1cccc(S(=O)(=O)c2ccc(C)c(S(=O)(=O)NCCc3ccccn3)c2)c1 [Example 429, 5-{[3-(ethylsulfonyl)phenyl]sulfonyl}-2-methyl-N-(2-pyridin-2-ylethyl)benzenesulfonamide] | 0.9 | 0.8 | 
CCc1ccc(S(=O)(=O)c2ccccc2)cc1S(=O)(=O)NCCC(=O)OC [Example 222, methyl N-{[2-ethyl-5-(phenylsulfonyl)phenyl]sulfonyl}-beta-alaninate] | 2.4 | 0.9 | 
O=S(=O)(NCCc1ccccc1)c1cc(S(=O)(=O)c2ccccc2)ccc1Cl [Example 334, 2-chloro-N-(2-phenylethyl)-5-(phenylsulfonyl)benzenesulfonamide] | 1.5 | 1.2 | 
O=C(NCCNS(=O)(=O)c1cc(S(=O)(=O)c2ccccc2)ccc1C(F)(F)F)c1ccc(Cl)cc1 [Example 778, 4-Chloro-N-[2-({[5-(phenylsulfonyl)-2-(trifluoromethyl)phenyl]sulfonyl}amino)ethyl]benzamide] |  |  | fold induction at 10 µM: 1.2
COCCCNS(=O)(=O)c1cc(S(=O)(=O)c2ccccc2)ccc1C [Example 215, N-(3-methoxypropyl)-2-methyl-5-(phenylsulfonyl)benzenesulfonamide] | 2.9 | 1 | 
Cc1ccc(S(=O)(=O)c2ccc(F)cc2)cc1S(=O)(=O)NC[C@@H](C)c1ccccc1 [Example 261, 5-[(4-fluorophenyl)sulfonyl]-2-methyl-N-[(2S)-2-phenylpropyl]benzenesulfonamide] | 1.4 | 0.9 | 
Cc1ccc(S(=O)(=O)c2ccc(C)c(S(=O)(=O)NCCc3ccccc3Cl)c2)cc1 [Example 117, N-[2-(2-chlorophenyl)ethyl]-2-methyl-5-[(4-methylphenyl)sulfonyl]benzenesulfonamide] |  |  | fold induction at 30 µM [3]: 1; fold induction at 30 µM [4]: 0.5
Cc1ccc(S(=O)(=O)c2ccccc2)cc1S(=O)(=O)N[C@H]1C[C@@H]1c1ccccc1 [Example 247, 2-methyl-N-[(1S,2R)-2-phenylcyclopropyl]-5-(phenylsulfonyl)benzenesulfonamide] |  |  | fold induction at 20 µM (read-out: Fold Induction with SFRP-1, Conc 20 μM, with SFRP-1, fold induction over SFRP-1 control, single dose): 1.7; fold induction at 20 µM (read-out: Fold Induction without SFRP-1, Conc 20 μM, without SFRP-1, single dose): 0.9
Cc1ccc(S(=O)(=O)NCCCn2ccnc2)cc1S(=O)(=O)c1ccccc1 [Example 317, N-[3-(1H-imidazol-1-yl)propyl]-4-methyl-3-(phenylsulfonyl)benzenesulfonamide] | 1.2 | 1.1 | 
